Reference: patent US7718641B2, “Pyrrolo [3,4-H] isoquinoline compounds and methods for modulating gated ion channels” (Aros Pharma ApS, priority 2005, dated 2010)

Assays:
hASIC1a = target: T1, hASIC1a (Homo sapiens, UniProt P78348); experiment: Whole-cell voltage clamp of pH-evoked response of human ASIC1a stably transfected in CHO cells; assay type: cell-based; parameters: expressed in transfected cells; settings: CHO cells
T1 sequence (P78348 1-528): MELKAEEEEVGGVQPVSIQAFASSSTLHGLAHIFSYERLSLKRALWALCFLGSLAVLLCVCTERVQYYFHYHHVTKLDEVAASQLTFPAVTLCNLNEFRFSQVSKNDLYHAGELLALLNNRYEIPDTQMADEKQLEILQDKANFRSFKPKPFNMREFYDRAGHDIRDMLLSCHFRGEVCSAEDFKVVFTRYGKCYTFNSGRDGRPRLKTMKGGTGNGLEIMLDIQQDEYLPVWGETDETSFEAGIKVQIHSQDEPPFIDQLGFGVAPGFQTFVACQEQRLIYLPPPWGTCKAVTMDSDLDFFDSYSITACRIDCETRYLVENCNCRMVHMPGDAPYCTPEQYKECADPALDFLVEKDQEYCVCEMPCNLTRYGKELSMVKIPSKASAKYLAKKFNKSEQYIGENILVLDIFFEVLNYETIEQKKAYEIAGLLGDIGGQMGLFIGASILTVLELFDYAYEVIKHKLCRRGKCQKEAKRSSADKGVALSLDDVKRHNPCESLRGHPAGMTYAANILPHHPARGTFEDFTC
Experimental: FIG. 3 illustrates the inhibitory effect of Compound A on acid-evoked activation of human ASIC1a stably transfected in CHO cells. […] In this example, the size of the pH-evoked response was determined by measuring the area under the curve of the response (total charge transfer) and normalized to the control response. FIG. 3B depicts an example of an hASIC1a current (whole cell voltage clamp, −60 mV) evoked by a pH 6.8-buffered solution (from pH 7.4) in the presence or absence of Compound A (3 μM).
These endogenous proton-activated inward currents were recorded in the presence and absence of Compound J (1 μM) or Compound K (1 μM) using the whole cell configuration of the patch clamp method (voltage clamp mode).
All experiments are performed at room temperature (20-25° C.) in voltage clamp using conventional whole cell patch clamp methods (Neher, E., et al. (1978) Pfluegers Arch 375:219-228).
Coverslips with the cells are transferred to a 15 μl experimental chamber mounted on the stage of an inverted microscope (IMT-2, Olympus) supplied with Nomarski optics. Cells are continuously superfused with extracellular saline at a rate of 2.5 ml/min. After giga-seal formation, the whole cell configuration is attained by suction. The cells are held at a holding voltage of −60 mV and at the start of each experiment the current is continuously measured for 45 s to ensure a stable baseline. Solutions of low pH (<7) are delivered to the chamber through a custom-made gravity-driven flowpipe, the tip of which is placed approximately 50 μm from the cell. Application is triggered when the tubing connected to the flowpipe is compressed by a valve controlled by the Pulse-software. Initially, low pH (in general, pH 6.5) is applied for 5 s every 60 s. The sample interval during application is 5501s. After stable responses are obtained, the extracellular saline as well as the low-pH solution are switched to solutions containing the compound to be tested. The compound is present until responses of a repeatable amplitude are achieved. Current amplitudes are measured at the peak of the responses, and effect of the compounds is calculated as the amplitude at compound equilibrium divided by the amplitude of the current evoked by the pulse just before the compound was included.
The following salt solutions are used: extracellular solution (mM): NaCl (140), KCl (4), CaCl2 (2), MgCl2 (4), HEPES (10, pH 7.4); intracellular solution (mM): KCl (120), KOH (31), MgCl2 (1.785), EGTA (10), HEPES (10, pH 7.2). In general, compounds for testing are dissolved in 50% DMSO at 500 fold the highest concentration used.
Similar findings are shown in FIG. 3 with the human ASIC1a stably transfected in CHO cells. FIG. 3A compares the dose-response relationship between Compound A and amiloride [determined by measuring the area under the curve of the response (total charge transfer) and normalized to the control response]. […] FIGS. 14A and 14B show similar results for Compounds J and K.

[1] = Plasma level after administration in the formalin experiments; assay type: in vivo; settings: plasma level 1.5 h after compound administration, i.p., rat
[2] = test system: CFA-induced thermal hyperalgesia; experiment: CFA model, thermal hyperalgesia (Hargreaves plantar test); assay type: in vivo, rat; settings: CFA 48 h prior
Experimental: Assessment of thermal hyperalgesia: Baseline and post-treatment withdrawal latencies to a noxious thermal stimulus were measured according to Hargreaves (Hargreaves et al., 1988) using a plantar test analgesia meter (IITC, Woodland Hills, Calif., model # 336). The stimulus intensity was set at 30% of maximum output and the cut-off time was set at 30 seconds. Rats were placed on a glass plate warmed to 28° C. and allowed to habituate to the testing chambers for a minimum of 15 minutes prior to each testing session. The thermal stimulus was applied to the plantar surface of the paw, and the mean latency of three readings on each paw was used as the latency value for each time point. Thermal thresholds were defined as the latency in seconds to the first pain behavior, which includes nocifensive paw withdrawal, flinching, biting and/or licking of the stimulated paw. The mean and standard error of the mean (SEM) were determined for the injured and normal paws for each treatment group.
For comparison, results with morphine (6 mg/kg sc) and indomethacin (30 mg/kg po) are shown. […] Data are expressed as mean±SEM, (n=10). **P<0.01, vs. baseline.

## COc1ccc(F)cc1-c1cc2c(c3c1CCN(C)C3)NC(=O)/C2=N/O [Compound A, 5-(5-fluoro-2-methoxyphenyl)-6,7,8,9-tetrahydro-3-(hydroxyimino)-8-methyl-1H-pyrrolo[3,2-h]isoquinoline-2(3H)-one]
hASIC1a; -60 mV, pH 6.8 from pH 7.4
  effect on size of human ASIC1a pH-evoked response (area under the curve, total charge transfer, normalized to control): reduce the human ASIC1a pH-evoked response in a dose-dependent manner
hASIC1a; human ASIC1a pH-evoked response
  potency relative to amiloride: about 100 fold
[1]
  relationship between dose and plasma level: linear relationship between dose and plasma exposure
[2]; 3 h after i.p. administration, dose-dependent
  reversal of CFA-induced thermal hyperalgesia: fully reversing the thermal hyperalgesia
[2]; Rattus norvegicus, ip, measured 3 h after i.p. administration, n=10, read-out: ED50, reversal of CFA-induced thermal hyperalgesia
  ED50: 6.5 mg/kg
